Data: patent publication US11051515B2, “3-acyl-benzamides and their use as herbicides” (Bayer Aktiengesellschaft, priority 2017, dated 2021)

Columns and labels:
ECHCG [1] = experiment: Pre-emergence action against ECHCG; format: in vivo, Echinochloa crus-galli; settings: pre-emergence, dosage 320 g/ha, scored visually after 3 weeks vs untreated controls
How it was run: (§1)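 Seeds sown in sandy loam in wood-fiber pots and covered with soil. Greenhouse growth; visual damage scored after 3 weeks versus untreated controls (100% = dead, 0% = like control).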

ALOMY [2] = experiment: Post-emergence action against ALOMY; format: in vivo, Alopecurus myosuroides; settings: Dosage 80 g/ha, post-emergence
How it was run: (§2)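 Post-emergence foliar spray on greenhouse plants at the one-leaf stage, using wettable-powder or emulsion-concentrate formulations in water (600 to […], plus 0.2% wetting agent). Damage scored by eye roughly 3 weeks later against untreated plants: 0% = like control, 100% = dead.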

ABUTH [3] = experiment: Post-emergence action against ABUTH; format: in vivo, Abutilon theophrasti; settings: post-emergence, dosage 80 g/ha, visual assessment about 3 weeks after treatment vs untreated controls
How it was run: as §2

STEME [4] = experiment: Pre-emergence action against STEME; format: in vivo, Stellaria media; settings: Dosage 320 g/ha, pre-emergence
How it was run: as §1

MATIN [5] = experiment: Pre-emergence action against MATIN; format: in vivo, Matricaria inodora; settings: Dosage 320 g/ha, pre-emergence
How it was run: as §1

VIOTR [6] = experiment: Pre-emergence action against VIOTR; format: in vivo, Viola tricolor; settings: Dosage 320 g/ha, pre-emergence
How it was run: as §1

MATIN [7] = experiment: Post-emergence action against MATIN; format: in vivo, Matricaria inodora; settings: post-emergence, dosage 80 g/ha, visual assessment about 3 weeks after treatment vs untreated controls
How it was run: as §2

PHBPU = experiment: Post-emergence action against PHBPU; format: in vivo, Pharbitis purpurea; settings: post-emergence, dosage 80 g/ha
How it was run: as §2

AVEFA [8] = experiment: Pre-emergence action against AVEFA; format: in vivo, Avena fatua; settings: dosage 320 g/ha, scored visually after 3 weeks vs untreated controls
How it was run: as §1

CYPES [9] = experiment: Pre-emergence action against CYPES; format: in vivo, Cyperus esculentus; settings: pre-emergence, dosage 320 g/ha, scored visually after 3 weeks vs untreated controls
How it was run: as §1

POLCO [10] = experiment: Post-emergence action against POLCO; format: in vivo, Polygonum convolvulus; settings: post-emergence, dosage 80 g/ha
How it was run: as §2

AVEFA [11] = experiment: Post-emergence action against AVEFA; format: in vivo, Avena fatua; settings: post-emergence, dosage 80 g/ha, visual assessment about 3 weeks after treatment vs untreated controls
How it was run: as §2

VIOTR [12] = experiment: Post-emergence action against VIOTR; format: in vivo, Viola tricolor; settings: post-emergence, dosage 80 g/ha
How it was run: as §2

SETVI [13] = experiment: Post-emergence action against SETVI; format: in vivo, Setaria viridis; settings: post-emergence, dosage 80 g/ha, visual assessment about 3 weeks after treatment vs untreated controls
How it was run: as §2

LOLMU [14] = experiment: Post-emergence action against LOLMU; format: in vivo, Lolium multiflorum; settings: dosage 80 g/ha, visual assessment about 3 weeks after treatment vs untreated controls
Method: Seeds of monocotyledonous and dicotyledonous weed and crop plants are laid out in sandy loam soil in wood-fiber pots, covered with soil and cultivated in a greenhouse under good growth conditions. 2 to 3 weeks after sowing, the test plants are treated at the one-leaf stage. The compounds of the invention, formulated in the form of wettable powders (WP) or as emulsion concentrates (EC), are then sprayed onto the green parts of the plants in the form of an aqueous suspension or emulsion at a water application rate equating to […], with addition of 0.2% wetting agent. After the test plants have been left to stand in the greenhouse under optimal growth conditions for about 3 weeks, the action of the preparations is assessed visually in comparison to untreated controls (herbicidal action in percent (%): 100% activity=the plants have died, 0% activity=like control plants). […] At the same time, inventive compounds leave Gramineae crops such as barley, wheat, rye, millet/Sorghum, corn or rice virtually undamaged when applied post-emergence, even at high active ingredient dosages. In addition, some substances are also harmless to dicotyledonous crops such as soya, cotton, oilseed rape, sugar beet or potatoes. Some of the compounds according to the invention have high selectivity and are therefore suitable for controlling unwanted vegetation in agricultural crops by the post-emergence method. The data of Tables B18 to B34 below illustrate, in an exemplary manner, the […] herbicidal action of the compounds according to the invention, the herbicidal activity being stated in percent.

VERPE [15] = experiment: Pre-emergence action against VERPE; format: in vivo, Veronica persica; settings: Dosage 320 g/ha, pre-emergence
How it was run: as §1

ALOMY [16] = experiment: Pre-emergence action against ALOMY; format: in vivo, Alopecurus myosuroides; settings: dosage 320 g/ha, pre-emergence, scored visually after 3 weeks vs untreated controls, 100% = plants have died, 0% = like control plants
How it was run: as §1

ABUTH [17] = experiment: Pre-emergence action against ABUTH; format: in vivo, Abutilon theophrasti; settings: pre-emergence, dosage 320 g/ha, scored visually after 3 weeks vs untreated controls
How it was run: as §1

LOLMU [18] = experiment: Pre-emergence action against LOLMU; format: in vivo, Lolium multiflorum; settings: dosage 320 g/ha, scored visually after 3 weeks vs untreated controls
How it was run: as §1

POLCO [19] = experiment: Pre-emergence action against POLCO; format: in vivo, Polygonum convolvulus; settings: Fallopia convolvulus, 504 h; Dosage 320 g/ha, pre-emergence
How it was run: as §1

STEME [20] = experiment: Post-emergence action against STEME; format: in vivo, Stellaria media; settings: post-emergence, dosage 80 g/ha
How it was run: as §2

AMARE [21] = experiment: Pre-emergence action against AMARE; format: in vivo, Amaranthus retroflexus; settings: pre-emergence, dosage 320 g/ha, scored visually after 3 weeks vs untreated controls
How it was run: as §1

ECHCG [22] = experiment: Post-emergence action against ECHCG; format: in vivo, Echinochloa crus-galli; settings: post-emergence, dosage 80 g/ha, visual assessment about 3 weeks after treatment vs untreated controls
How it was run: as §2

VERPE [23] = experiment: Post-emergence action against VERPE; format: in vivo, Veronica persica; settings: dosage 80 g/ha
How it was run: as §2

SETVI [24] = experiment: Pre-emergence action against SETVI; format: in vivo, Setaria viridis; settings: pre-emergence, dosage 320 g/ha, scored visually after 3 weeks vs untreated controls
How it was run: as §1

AMARE [25] = experiment: Post-emergence action against AMARE; format: in vivo, Amaranthus retroflexus; settings: post-emergence, dosage 80 g/ha, visual assessment about 3 weeks after treatment vs untreated controls
How it was run: as §2

CYPES [26] = experiment: Post-emergence action against CYPES; format: in vivo, Cyperus esculentus; settings: post-emergence, dosage 80 g/ha, visual assessment about 3 weeks after treatment vs untreated controls
How it was run: as §2

Question: Which pest or weed control at 320 g/ha (ECHCG [1]; Echinochloa crus-galli, 504 h, read-out: Pre-emergence action against ECHCG (herbicidal activity)) does the source give for `CSc1ccc(C(=O)Nc2nnnn2C)c(Cl)c1C(C)=O` [1-121] here?
Answer: 100%

Question: What about the pest or weed control at 80 g/ha (ALOMY [2]; Alopecurus myosuroides, 504 h) of the same molecule?
Answer: 90%

Question: What about the pest or weed control at 80 g/ha (ABUTH [3]; Abutilon theophrasti, 504 h, read-out: Post-emergence action against ABUTH (herbicidal action in percent)) of the same molecule?
Answer: 90%

Question: And the pest or weed control at 320 g/ha (STEME [4]; Stellaria media, 504 h)?
Answer: 90%

Question: What about the pest or weed control at 320 g/ha (MATIN [5]; Tripleurospermum inodorum, 504 h) of the same molecule?
Answer: 100%

Question: And the pest or weed control at 320 g/ha (VIOTR [6]; Viola tricolor, 504 h)?
Answer: 100%

Question: And the pest or weed control at 80 g/ha (MATIN [7]; Tripleurospermum inodorum, 504 h, read-out: Post-emergence action against MATIN (herbicidal action in percent))?
Answer: 100%

Question: And the pest or weed control at 80 g/ha (PHBPU; Ipomoea purpurea, 504 h)?
Answer: 90%

Question: What about the pest or weed control at 320 g/ha (AVEFA [8]; Avena fatua, 504 h, read-out: Pre-emergence action against AVEFA (herbicidal activity)) of the same molecule?
Answer: 90%

Question: And the pest or weed control at 320 g/ha (CYPES [9]; Cyperus esculentus, 504 h, read-out: Pre-emergence action against CYPES (herbicidal activity))?
Answer: 90%

Question: And the pest or weed control at 80 g/ha (POLCO [10]; Fallopia convolvulus, 504 h)?
Answer: 80%

Question: What about the pest or weed control at 80 g/ha (AVEFA [11]; Avena fatua, 504 h, read-out: Post-emergence action against AVEFA (herbicidal action in percent)) of the same molecule?
Answer: 90%

Question: What about the pest or weed control at 80 g/ha (VIOTR [12]; Viola tricolor, 504 h) of the same molecule?
Answer: 90%

Question: What about the pest or weed control at 80 g/ha (SETVI [13]; Setaria viridis, 504 h, read-out: Post-emergence action against SETVI (herbicidal action in percent)) of the same molecule?
Answer: 90%

Question: And the pest or weed control at 80 g/ha (LOLMU [14]; Lolium multiflorum, 504 h, read-out: Post-emergence action against LOLMU (herbicidal action in percent))?
Answer: 90%

Question: What about the pest or weed control at 320 g/ha (VERPE [15]; Veronica persica, 504 h) of the same molecule?
Answer: 100%

Question: And the pest or weed control at 320 g/ha (ALOMY [16]; Alopecurus myosuroides, 504 h, read-out: Pre-emergence action against ALOMY (herbicidal activity in percent))?
Answer: 90%

Question: And the pest or weed control at 320 g/ha (ABUTH [17]; Abutilon theophrasti, 504 h, read-out: Pre-emergence action against ABUTH (herbicidal activity))?
Answer: 90%

Question: What about the pest or weed control at 320 g/ha (LOLMU [18]; Lolium multiflorum, 504 h, read-out: Pre-emergence action against LOLMU (herbicidal activity)) of the same molecule?
Answer: 90%

Question: What about the pest or weed control at 320 g/ha (POLCO [19]) of the same molecule?
Answer: 90%

Question: What about the pest or weed control at 80 g/ha (STEME [20]; Stellaria media, 504 h) of the same molecule?
Answer: 100%

Question: What about the pest or weed control at 320 g/ha (AMARE [21]; Amaranthus retroflexus, 504 h, read-out: Pre-emergence action against AMARE (herbicidal activity)) of the same molecule?
Answer: 100%

Question: What about the pest or weed control at 80 g/ha (ECHCG [22]; Echinochloa crus-galli, 504 h, read-out: Post-emergence action against ECHCG (herbicidal action in percent)) of the same molecule?
Answer: 90%

Question: And the pest or weed control at 80 g/ha (VERPE [23]; Veronica persica, 504 h)?
Answer: 100%

Question: And the pest or weed control at 320 g/ha (SETVI [24]; Setaria viridis, 504 h, read-out: SETVI (Table B8, pre-emergence herbicidal activity))?
Answer: 100%

Question: What about the pest or weed control at 80 g/ha (AMARE [25]; Amaranthus retroflexus, 504 h, read-out: Post-emergence action against AMARE (herbicidal action in percent)) of the same molecule?
Answer: 90%

Question: What does the source list for `CCn1nnnc1NC(=O)c1ccc(S(C)(=O)=O)c(C(=O)C2CC2)c1Cl` [2-129]?
Answer: Pre-emergence action against ECHCG (herbicidal activity) (ECHCG [1]): 100%; Post-emergence action against ALOMY (ALOMY [2]): 100%; Post-emergence action against ABUTH (herbicidal action in percent) (ABUTH [3]): 80%; Pre-emergence action against STEME (STEME [4]): 100%; Pre-emergence action against MATIN (MATIN [5]): 100%; Pre-emergence action against VIOTR (VIOTR [6]): 100%; Post-emergence action against MATIN (herbicidal action in percent) (MATIN [7]): 100%; Post-emergence action against CYPES (herbicidal action in percent) (CYPES [26]): 80%; Post-emergence action against PHBPU (PHBPU): 100; Pre-emergence action against AVEFA (herbicidal activity) (AVEFA [8]): 100%; Pre-emergence action against CYPES (herbicidal activity) (CYPES [9]): 100%; Post-emergence action against POLCO (POLCO [10]): 100; Post-emergence action against AVEFA (herbicidal action in percent) (AVEFA [11]): 100%; Post-emergence action against VIOTR (VIOTR [12]): 100; Post-emergence action against SETVI (herbicidal action in percent) (SETVI [13]): 100%; Post-emergence action against LOLMU (herbicidal action in percent) (LOLMU [14]): 90%; Pre-emergence action against VERPE (VERPE [15]): 100%; Pre-emergence action against ALOMY (herbicidal activity in percent) (ALOMY [16]): 90%; Pre-emergence action against ABUTH (herbicidal activity) (ABUTH [17]): 100%; Pre-emergence action against LOLMU (herbicidal activity) (LOLMU [18]): 90%; Post-emergence action against STEME (STEME [20]): 100; Pre-emergence action against AMARE (herbicidal activity) (AMARE [21]): 100%; Post-emergence action against ECHCG (herbicidal action in percent) (ECHCG [22]): 90%; Post-emergence action against VERPE (VERPE [23]): 100; SETVI (Table B8, pre-emergence herbicidal activity) (SETVI [24]): 100%; Post-emergence action against AMARE (herbicidal action in percent) (AMARE [25]): 100%
